According to patent US11591355B2 (Peloton Therapeutics, Inc., priority 2017, dated 2023):

Assays:
[1] = target: T1, CD73 on U138 human neuroglioma cells (Homo sapiens, UniProt P21589); experiment: CD73 Cell-Based Assay; settings: U138 cells, AMP substrate, 2 hours at 37° C., inorganic phosphate by malachite green
T1 construct: U138 cells were obtained from ATCC and cultured in DMEM with 10% FBS; host or cells: U138 human neuroglioma cells
T1 sequence (P21589 27-549): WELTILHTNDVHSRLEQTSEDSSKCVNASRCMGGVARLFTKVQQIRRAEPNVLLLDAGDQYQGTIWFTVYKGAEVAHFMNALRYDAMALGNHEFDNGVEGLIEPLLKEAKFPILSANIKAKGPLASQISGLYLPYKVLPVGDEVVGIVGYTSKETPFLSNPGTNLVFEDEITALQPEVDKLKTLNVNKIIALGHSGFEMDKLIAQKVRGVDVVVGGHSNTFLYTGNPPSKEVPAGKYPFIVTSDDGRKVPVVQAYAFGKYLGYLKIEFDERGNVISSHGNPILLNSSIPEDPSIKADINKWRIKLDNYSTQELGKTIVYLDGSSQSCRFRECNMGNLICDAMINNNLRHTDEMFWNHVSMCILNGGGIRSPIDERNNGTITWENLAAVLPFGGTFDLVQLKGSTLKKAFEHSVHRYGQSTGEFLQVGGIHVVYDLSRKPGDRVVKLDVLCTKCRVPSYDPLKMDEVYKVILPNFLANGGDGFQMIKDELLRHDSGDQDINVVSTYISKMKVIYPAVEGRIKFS
Description: U138 human neuroglioma cells were used in these experiments. U138 cells were obtained from ATCC and cultured in DMEM with 10% FBS. 2500 cells were seeded into 96-well plate with 100 μL of media the day before the experiment. Cells were washed twice with 200 μL of assay buffer (20 mM HEPES, pH 7.4; 137 mM NaCl; 5.4 mM KCl; 1.3 mM CaCl2); 4.2 mM NaHCO3; 1 mg/mL glucose) to remove residual inorganic phosphate. After washing, 100 μL of buffer was added to each well, then 100 μL of a mixture of AMP substrate (200 μM) and diluted compound was added to each well. The cells were incubated at 37° C. (with 5% CO2) for 2 hours. 50 μL of supernatant was transferred to a 96-well assay plate and the concentration of inorganic phosphate was determined using malachite green reagent (R&D System; Cat: DY996).

Human CD73 = target: T2, Human CD73 (Homo sapiens, UniProt P21589); experiment: CD73 Enzyme Assay; type: biochemical; settings: 0.25 nM hCD73, 25 μM AMP, kinetic read at 360 nm; read-out: CD73 Enzyme Assay IC50
T2 construct: purchased R&D Systems; host or cells: CHO cells
T2 sequence (P21589 27-549): T1 sequence (P21589 27-549)

| IC50 [1] [nM] | IC50 (Human CD73) [nM] | SMILES |
| --- | --- | --- |
| < 10 | 10 to 100 | C[C@@H](Nc1nc(Cl)nc2c1cnn2[C@@H]1O[C@H](COCP(=O)(O)O)[C@@H](O)[C@H]1O)c1ccc(F)cc1 [Compound 269, [(2R,3S,4R,5R)-5-[6-chloro-4-[[(1R)-1-(4-fluorophenyl)ethyl]-amino]pyrazolo[3,4-d]-pyrimidin-1-yl]-3,4-dihydroxy-tetrahydro-furan-2-yl]methoxy-methylphosphonic acid] |
| < 10 | < 10 | O=P(O)(O)CS(=O)(=O)C[C@H]1O[C@@H](n2ncc3c(NC4CCCC4)nc(Cl)nc32)[C@H](O)[C@@H]1O [Compound 287, [(2S,3S,4R,5R)-5-[6-chloro-4-(cyclopentyl-amino)pyrazolo[3,4-d]-pyrimidin-1-yl]-3,4-dihydroxy-tetrahydro-furan-2-yl]methyl-sulfonylmethylphos-phonic acid] |
| 100 to 1000 | 100 to 1000 | O=P(O)(O)COC[C@H]1O[C@@H](n2ccc3c(Nc4ccccc4)nc(Cl)nc32)[C@H](O)[C@@H]1O [Compound 211, [(2R,3S,4R,5R)-5-(4-anilino-2-chloro-pyrrolo[2,3-d]-pyrimidin-7-yl)-3,4-dihydroxy-tetrahydro-furan-2-yl]methoxy-methylphosphonic acid] |
| < 10 | 10 to 100 | O=P(O)(O)COC[C@H]1O[C@H](c2c[nH]c3c(N4CC5CCCC5C4)nc(Cl)nc23)[C@H](O)[C@@H]1O (stereo partly drawn) [Compound 294, [(2R,3S,4R,5R)-5-[4-(3,3a,4,5,6,6a-hexa-hydro-1H-cyclopenta-[c]pyrrol-2-yl)-2-chloro-5H-pyrrolo[3,2-d]pyrimidin-7-yl]-3,4-dihydroxy-tetrahydro-furan-2-yl]methoxy-methylphosphonic acid] |
| 10 to 100 | 10 to 100 | COCCOc1nc(NC2CCCC2)c2ccn([C@@H]3O[C@H](COCP(=O)(O)O)[C@@H](O)[C@H]3O)c2n1 [Compound 260, [(2R,3S,4R,5R)-5-[4-(cyclopentylamino)-2-(2-methoxyethoxy)-pyrrolo[2,3-d]-pyrimidin-7-yl]-3,4-dihydroxy-tetrahydro-furan-2-yl]methoxy-methylphosphonic acid] |
| < 10 | < 10 | O=P(O)(O)COC[C@H]1O[C@@H](n2ccc3c(NC4CCCC4)nc(I)nc32)[C@H](O)[C@@H]1O [Compound 230, [(2R,3S,4R,5R)-5-[4-(cyclopentylamino)-2-iodo-pyrrolo[2,3-d]-pyrimidin-7-yl]-3,4-dihydroxy-tetrahydro-furan-2-yl]methoxy-methylphosphonic acid] |
| > 1000 | 10 to 100 | O=P(O)(O)COC[C@H]1O[C@@H](n2ccc3c(Oc4ccccc4)nc(Cl)nc32)[C@H](O)[C@@H]1O [Compound 206, [(2R,3S,4R,5R)-5-(2-chloro-4-phenoxy-pyrrolo[2,3-d]-pyrimidin-7-yl)-3,4-dihydroxy-tetrahydro-furan-2-yl]methoxy-methylphosphonic acid] |

Further lines, the compound ahead of its results:

| SMILES | IC50 [1] [nM] | IC50 (Human CD73) [nM] |
| --- | --- | --- |
| CC(C)Nc1nc(C#N)nc2c1ncn2[C@@H]1O[C@H](COCP(=O)(O)O)[C@@H](O)[C@H]1O [Compound 16, [(2R,3S,4R,5R)-5-[2-cyano-6-(isopropyl-amino)purin-9-yl]-3,4-dihydroxy-tetrahydrofuran-2-yl]methoxymethyl-phosphonic acid] | 100 to 1000 | 10 to 100 |
| C[C@H](Nc1nc(Cl)nc2c1ncn2[C@@H]1O[C@H](CS(=O)(=O)CP(=O)(O)O)[C@@H](O)[C@H]1O)c1ccccc1 [Compound 152, [(2S,3S,4R,5R)-5-[2-chloro-6-[[(1S)-1-phenylethyl]amino]-purin-9-yl]-3,4-dihydroxy-tetrahydro-furan-2-yl]methyl-sulfonylmethylphos-phonic acid] | 10 to 100 | 10 to 100 |
| O=P(O)(O)COC[C@H]1O[C@@H](n2ccc3c(NC4CCOCC4)nc(Cl)nc32)[C@H](O)[C@@H]1O [Compound 99, [(2R,3S,4R,5R)-5-[2-chloro-4-(tetrahydro-pyran-4-ylamino)-pyrrolo[2,3-d]-pyrimidin-7-yl]-3,4-dihydroxy-tetrahydro-furan-2-yl]methoxy-methylphosphonic acid] | 10 to 100 | 10 to 100 |
| CC(C)OC(=O)OCOP(=O)(O)COC[C@H]1O[C@@H](n2ccc3c(NC4CCCC4)nc(Cl)nc32)[C@H](O)[C@@H]1O [Compound 193, [(2R,3S,4R,5R)-5-[2-chloro-4-(cyclopentyl-amino)pyrrolo[2,3-d]-pyrimidin-7-yl]-3,4-dihydroxy-tetrahydro-furan-2-yl]methoxy-methyl-(isopropoxy-carbonyloxymethoxy)-phosphinic acid] | 10 to 100 | 10 to 100 |
| C[C@@H](Nc1nc(C#N)nc2c1ccn2[C@@H]1O[C@H](COCP(=O)(O)O)[C@@H](O)[C@H]1O)c1ccc(F)cc1 [Compound 73, [(2R,3S,4R,5R)-5-[2-cyano-4-[[(1R)-1-(4-fluorophenyl)ethyl]-amino]pyrrolo[2,3-d]-pyrimidin-7-yl]-3,4-dihydroxy-tetrahydro-furan-2-yl]methoxy-methylphosphonic acid] | < 10 | < 10 |
| C[C@@H](Nc1nc(Cl)nc2c1ccn2[C@@H]1O[C@H](COCP(=O)(O)O)[C@@H](O)[C@H]1O)c1ccc(F)cn1 [Compound 135, [(2R,3S,4R,5R)-5-[2-chloro-4-[[(1R)-1-(5-fluoro-2-pyridyl)ethyl]-amino]pyrrolo[2,3-d]-pyrimidin-7-yl]-3,4-dihydroxy-tetrahydro-furan-2-yl]methoxy-methylphosphonic acid] | 10 to 100 | 100 to 1000 |
| C[C@@H](Nc1nc(C#N)nc2c1ccn2[C@@H]1O[C@H](COCP(=O)(O)O)[C@@H](O)[C@H]1O)c1ccc(F)cc1F [Compound 189, [(2R,3S,4R,5R)-5-[2-cyano-4-[[(1R)-1-(2,4-difluorophenyl)ethyl]-amino]pyrrolo[2,3-d]-pyrimidin-7-yl]-3,4-dihydroxy-tetrahydro-furan-2-yl]methoxy-methylphosphonic acid] | < 10 | < 10 |
| C[C@H](Nc1nc(Cl)nc2c1ccn2[C@@H]1O[C@H](COCP(=O)(O)O)[C@@H](O)[C@H]1O)c1ccc(C(F)(F)F)cc1 [Compound 106, [(2R,3S,4R,5R)-5-[2-chloro-4-[[(1S)-1-[4-(trifluoromethyl)-phenyl]ethyl]amino]-pyrrolo[2,3-d]-pyrimidin-7-yl]-3,4-dihydroxy-tetrahydro-furan-2-yl]methoxy-methylphosphonic acid] | < 10 | < 10 |
| O=P(O)(O)COC[C@H]1O[C@@H](n2cnc3c(NCc4ccccc4)nc(Cl)nc32)[C@H](O)[C@@H]1O [Compound 3, [(2R,3S,4R,5R)-5-[6-(benzylamino)-2-chloro-purin-9-yl]-3,4-dihydroxy-tetrahydrofuran-2-yl]methoxymethyl-phosphonic acid] | 10 to 100 | 100 to 1000 |
| CC(C)OP(=O)(O)CS(=O)(=O)C[C@H]1O[C@@H](n2ccc3c(NC4CCCC4)nc(Cl)nc32)[C@H](O)[C@@H]1O [Compound 160, [(2S,3S,4R,5R)-5-[2-chloro-4-(cyclo-pentylamino)pyrrolo-[2,3-d]pyrimidin-7-yl]-3,4-dihydroxy-tetrahydrofuran-2-yl]methylsulfonyl-methyl-isopropoxy-phosphinic acid] | 100 to 1000 | 100 to 1000 |
| O=P(O)(O)COC[C@H]1O[C@@H](n2ccc3c(NC4CC5CC5C4)nc(Cl)nc32)[C@H](O)[C@@H]1O (stereo partly drawn) [Compound 102, [(2R,3S,4R,5R)-5-[4-(3-bicyclo[3.1.0]-hexanylamino)-2-chloro-pyrrolo[2,3-d]-pyrimidin-7-yl]-3,4-dihydroxy-tetrahydro-furan-2-yl]methoxy-methylphosphonic acid] | < 10 | < 10 |
| C[C@H](Nc1nc(C#N)nc2c1ccn2[C@@H]1O[C@H](COCP(=O)(O)O)[C@@H](O)[C@H]1O)c1ccc(F)cc1 [Compound 72, [(2R,3S,4R,5R)-5-[2-cyano-4-[[(1S)-1-(4-fluorophenyl)ethyl]-amino]pyrrolo[2,3-d]-pyrimidin-7-yl]-3,4-dihydroxy-tetrahydro-furan-2-yl]methoxy-methylphosphonic acid] | < 10 | < 10 |
| C[C@H](Nc1nc(Cl)nc2c1ccn2[C@@H]1O[C@H](COCP(=O)(O)O)[C@@H](O)[C@H]1O)c1ccc(C2CC2)cc1 [Compound 198, [(2R,3S,4R,5R)-5-[2-chloro-4-[[(1S)-1-(4-cyclopropylphenyl)-ethyl]amino]pyrrolo-[2,3-d]pyrimidin-7-yl]-3,4-dihydroxy-tetra-hydrofuran-2-yl]-methoxymethylphos-phonic acid] | < 10 | < 10 |
